Where “and” joins values, the source holds several entries; their conditions need not be identical. Identical values can stand only once. Entries after “also recorded” stand apart in the source; their conditions may differ.
Legend:
Type in all cases: in vivo, mouse
[1] = system: MLKL, PKA, CREB phosphorylation; experiment: Immunoblotting of p-MLKL, p-PKA, p-CREB in colon tissues/IECs of DSS-treated mice; settings: for Activation of cAMP/PKA/CREB pathway (p-PKA, p-CREB): DSS-induced colitis mice; for Necroptosis of IECs (p-MLKL level and TEM imaging): high-dose, 20 μM, during DSS feeding
Method: The data represent the mean ± SD for c, e, and h–l, the data represent the mean ± SEM for b.
Colon tissues derived from the euthanized by carbon dioxide inhalation mice were opened longitudinally and washed in pre-cooling PBS for three times. Then, the tissues were cut into 3 mm^2 pieces and incubated with 5 mM EDTA solution in PBS on a constant temperature shaker at 200 rpm for 25 min at 37°C. Then, let it stand at room temperature for 30 seconds and collected the supernatant. Next, repeated the above process once. Supernatants from the above step were combined and centrifuged at 500 g for 8 min. Abandon the supernatants and obtain IECs.
Tissues and cells were lysed using RIPA lysis buffer (Beyotime Biotechnology) containing protease and phosphatase inhibitor, homogenated, and centrifuged. The protein concentration was determined by BCA protein assay (Beyotime Biotechnology). Equal concentrations of proteins were separated in a 10% SDS-PAGE and transferred to PVDF membrane. The membrane was blocked using 5% milk in TBST, probed with primary antibody, RIPK1 (17519-1-AP, Proteintech, 1:1000), MLKL (GTX107538-100, GeneTex, 1:1000), RIPK3 (17563-1-AP, Proteintech, 1:1000), p-MLKL (EPR9514, Abcam, 1:1000), PKA (bs-0520R, Bioss, 1:1000), p-PKA (#9621, Cell signaling, 1:1000), CREB (AF6188, Affinity, 1:1000), p-CREB (AF3189, Affinity, 1:1000), P2Y14R (bs-12028R, Bioss, 1:1000), GSDMD (ab209845, Abcam, 1:1000), Caspase1 p20 (bs-10442R, Bioss, 1:1000), Bcl-2 (bs-0032R, Bioss, 1:1000), Bax (AF0120, Affinity, 1:1000), Caspase-3 p-17 (Cell Signaling Technology, #9664, 1:1000), β-actin (bs-0061R, Bioss, 1:1000), GAPDH (BS-2188R, Bioss, 1:1000) and corresponding HRP-conjugated antibodies Goat Anti-Rabbit IgG H&L Antibody (bioss, Bs-0295G, 1:8000) or Goat Anti-Mouse IgG H&L Antibody (bioss, Bs-0296G, 1:8000). Densitometry was quantified using ImageJ software.

[2] = system: CREB binding to Ripk1 promoter; experiment: ChIP-qPCR with anti-CREB on Ripk1 gene promoter in IECs of experimental colitis mice; settings: for CREB binding Ripk1 promoter: DSS-treated mice, Figure 7j; for Binding between CREB and Ripk1 promoter (ChIP): IECs of DSS-induced colitis mice
Method: Total RNA was extracted from cells or colonic tissues using Trizol (Thermo) under the manufacturer’s instructions. First strand cDNA was synthesized using the PrimeScript RT Reagent Kit (480, Abm). SYBR Green Master Mix reagents (Q331-02, Vazyme) and primer mixtures (Table S1) were used for the real-time PCR. The ChIP assays were performed using EZ ChIP kit (17-371, Millipore). The procedure was as described in the kit provided by the manufacturer. Briefly, isolated IECs were fixed by 1% formaldehyde, and fragmented by sonication. CREB was then used for immunoprecipitation. After washing and reverse-crosslinking, the precipitated DNA was amplified by primers and quantified by the qPCR. Primer sequences can be found in Supplementary Table 1.

[3] = system: DSS-induced colitis in P2Y14R△IEC mice; experiment: DSS-induced colitis in P2Y14R△IEC mice treated with HDL-16 or PPTN; parameters: DAI: scale not given here; settings: for Weight loss, diarrhea, rectal bleeding, mucosal barrier injury, inflammatory cell infiltration in P2Y14R△IEC mice / p-MLKL in P2Y14R△IEC mice (western blot): DSS-fed P2Y14R△IEC mice; for p-MLKL in P2Y14R△IEC mice (western blot): colon tissues; for DAI / Weight: P2Y14R fl/fl vil-cre mice + DSS; for Improvement of DSS colitis in P2Y14R△IEC mice: daily administration, DSS feeding P2Y14R△IEC mice
Description: Male, 7-8-week-old, P2Y14R^fl/fl Vil-cre (P2Y14R^∆IEC), P2Y14R^fl/fl Lyz2-cre and WT mice with C57BL/6 J background were used to establish experimental (acute) colitis model. P2Y14R^fl/fl C57BL/6 J mice were used as control for P2Y14R^fl/fl Vil-cre (P2Y14R^∆IEC) and P2Y14R^fl/fl Lyz2-cre mice. WT C57BL/6 J mice were used for the pharmacological study of HDL-16. Colitis was induced by dextran sodium sulfate (DSS; 36-50 kDa; 3% w/v; MP Biomedicals, Solon, Ohio, USA), added to the drinking water ad libitum for 7 days. Control mice received standard drinking water. The Disease Activity Index (DAI) was evaluated daily as described previously. After 7 days of DSS treatment, mice were euthanized by carbon dioxide inhalation and the colons were measured and then processed for histological analyses, homogenized to extract protein or RNA.
The DSS group and the P2Y14R^△IEC + DSS group were rectally administered with 100 μl vehicle (saline with 0.1% DMSO). The low-dose group of mice was given 10 μM HDL-16, 100 μl per mouse, while the high-dose group was given 20 μM HDL-16, 100 μl per mouse. […]
immunoblotting with corresponding antibodies in the IECs from DSS treated mice with HDL-16 or […]
the entire experimental period. d Body weight change and disease activity index evaluation of mice change during the disease process (n = 6 mice per group). e Effects of P2Y14R antagonists on P2Y14R△IEC mice mucosal barrier function as measured by serum levels of FITC-dextran based on intestinal permeability methods (n = 6 mice per group). f The length of colons from mice 7 days after DSS treatment (n = 6 mice per group). g The H&E staining in the colon tissues of DSS-treated mice (Scale bar = 200 μm). h The immunofluorescent images of colon tissues stained with Claudin-1, Occludin and ZO-1, the principal components of tight junction (Scale bar = 200 μm). i Phosphorylation MLKL as well as its protein levels were analyzed by immunoblotting with corresponding antibodies in colon tissues (n = 5 mice per group). The data represent the mean ± SD for b, e, f and i, the data represent the mean ± SEM for d. The p-values were determined by One-way analysis of variance (ANOVA) with Tukey multiple comparison test for e, f, i, and two-way analysis of variance (ANOVA) with Šídák's multiple comparisons test for b and d. For a, g and h, […]

[4] = system: mucosal barrier function; experiment: Intestinal permeability, serum FITC-dextran in DSS-treated mice
Method: The mice treated with DSS for 7 days were fasted for 6 h, given FITC-dextran (3-5 kDa, FD4, sigma) intragastrically at a dose of 60 mg kg^−1. After 3 h, hemolysis-free sera were collected and the fluorescence intensity of serum was read by a multi-mode microplate reader (excitation, 488 nm; emission, 520 nm).

[5] = DSS-treated mice, group -H (high dose), Figure 7h
[6] = DSS-treated mice, group -L (low dose), Figure 7h
[7] = HDL-16-H (high dose), Day 1, individual mice
[8] = HDL-16-H (high dose), Day 2, individual mice
[9] = HDL-16-H (high dose), Day 3, individual mice
[10] = HDL-16-H (high dose), Day 4, individual mice
[11] = HDL-16-H (high dose), Day 5, individual mice
[12] = HDL-16-H (high dose), Day 6, individual mice
[13] = HDL-16-H (high dose), Day 7, individual mice
[14] = HDL-16-L (low dose), Day 1, individual mice
[15] = HDL-16-L (low dose), Day 2, individual mice
[16] = P2Y14R△IEC mice + DSS + PPTN, individual mice, supplement Figure 4e

**Q.** What does the source list for `Brc1ccc(NCc2nc3ccccc3o2)cc1` [HDL-16]?
**A.** Activation of cAMP/PKA/CREB pathway (p-PKA, p-CREB) [1]: significantly increased the level of p-PKA and p-CREB; also recorded: upregulated the activation of the cAMP/PKA/CREB pathway; P-MLKL/MLKL [1, 5]: 1.521 and 1.265 and 1.621 and 1.356 and 1.5395; P-PKA/PKA [1, 5]: 1.707 and 1.759 and 1.709 and 1.416 and 2.236; p-CREB/CREB [1, 5]: 1.095 and 0.9798 and 1.543 and 0.8826 and 0.8002; P-MLKL/MLKL [1, 6]: 1.7141 and 1.386 and 1.7276 and 1.656 and 1.549; P-PKA/PKA [1, 6]: 1.542 and 1.79 and 2.009 and 1.5655 and 1.809; p-CREB/CREB [1, 6]: 0.8983 and 0.8748 and 1.433 and 0.9557 and 0.9121; P-MLKL/MLKL ([1]; P2Y14R△IEC mice + DSS + HDL-16-H (high dose), individual replicates): 1.288 and 1.248 and 1.394 and 1.076 and 1.4285; P-MLKL/MLKL ([1]; P2Y14R△IEC mice + DSS + HDL-16-L (low dose), individual replicates): 1.279 and 1.445 and 1.246 and 1.195 and 1.182; Necroptosis of IECs (p-MLKL level and TEM imaging) [1]: prominently suppression in necroptosis; CREB binding Ripk1 promoter ([2]; group -H (high dose)): 68.32% and 67.71% and 73.03%; CREB binding Ripk1 promoter ([2]; group -L (low dose)): 52.80% and 57.62% and 56.66%; Binding between CREB and Ripk1 promoter (ChIP) [2]: promoted the binding between CREB and Ripk1 promoter; Weight loss, diarrhea, rectal bleeding, mucosal barrier injury, inflammatory cell infiltration in P2Y14R△IEC mice [3]: did not influence DSS-fed induced weight loss; p-MLKL in P2Y14R△IEC mice (western blot) [3]: did not affect DSS-induced upregulation of p-MLKL; DAI [3, 7]: 0; Weight [3, 7]: 100%; DAI [3, 8]: 0; Weight [3, 8]: 100%; DAI [3, 9]: 0 (5×) and 1; Weight [3, 9]: 95% (2×) and 100% (4×); DAI [3, 10]: 1 (5×) and 0; Weight [3, 10]: 95% (3×) and 100% (2×) and 96%; DAI [3, 11]: 1 (2×) and 0 and 4 (2×) and 2; Weight [3, 11]: 91% (2×) and 95% (2×) and 100% and 96%; DAI [3, 12]: 1 (3×) and 0 and 4 and 6; Weight [3, 12]: 91% (3×) and 95% (2×) and 100%; DAI [3, 13]: 1 (2×) and 0 and 2 and 6 and 8; Weight [3, 13]: 91% (4×) and 95% and 100%; DAI [3, 14]: 0; Weight [3, 14]: 100%; DAI [3, 15]: 0 (5×) and 1; Weight [3, 15]: 100%; Weight ([3]; HDL-16-L (low dose), Day 3, individual mice): 100% (5×) and 96%; Weight ([3]; HDL-16-L (low dose), Day 4, individual mice): 95% (4×) and 100% and 96%; Weight ([3]; HDL-16-L (low dose), Day 5, individual mice): 95% (4×) and 100% and 91%; Weight ([3]; HDL-16-L (low dose), Day 6, individual mice): 95% (2×) and 100% and 91% and 90% (2×); Weight ([3]; HDL-16-L (low dose), Day 7, individual mice): 95% (3×) and 100% and 91% and 90%; Improvement of DSS colitis in P2Y14R△IEC mice [3]: barely improvement; Serum level of FITC-dextran in DSS-treated mice relative to treated group ([4]; high-dose, 20 μM, 100 μl per mouse): significantly higher

**Q.** For `O=C(O)c1cc(-c2ccc(C3CCNCC3)cc2)c2ccc(-c3ccc(C(F)(F)F)cc3)cc2c1` [PPTN, reference compound], which “Activation of cAMP/PKA/CREB pathway (p-PKA, p-CREB)” value [1] is on record?
**A.** Its value is “significantly increased the level of p-PKA and p-CREB”.

**Q.** And the P-MLKL/MLKL ([1]; DSS-treated mice, Figure 7h)?
**A.** The P-MLKL/MLKL was 1.3877 and 1.2109 and 1.586 and 1.421 and 1.9357.

**Q.** And the P-PKA/PKA ([1]; DSS-treated mice, Figure 7h)?
**A.** Its P-PKA/PKA is 2.217 and 1.679 and 2.34 and 2.232 and 2.623.

**Q.** What about the p-CREB/CREB ([1]; DSS-treated mice, Figure 7h) of the same compound?
**A.** The p-CREB/CREB was 0.8109 and 1.08 and 1.258 and 1.076 and 0.8633.

**Q.** And the P-MLKL/MLKL ([1]; P2Y14R△IEC mice + DSS + PPTN, individual replicates)?
**A.** The P-MLKL/MLKL was 1.205 and 1.2332 and 1.252 and 1.224 and 1.39.

**Q.** And the “Necroptosis of IECs (p-MLKL level and TEM imaging)” value [1]?
**A.** Its value is “prominently suppression in necroptosis”.

**Q.** What about the “CREB binding Ripk1 promoter” value [2] of the same compound?
**A.** The value was 59.41% and 55.99% and 63.77%.

**Q.** What about the “Binding between CREB and Ripk1 promoter (ChIP)” value [2] of the same compound?
**A.** Its value is “promoted the binding between CREB and Ripk1 promoter”.

**Q.** What about the “Weight loss, diarrhea, rectal bleeding, mucosal barrier injury, inflammatory cell infiltration in P2Y14R△IEC mice” value [3] of the same compound?
**A.** The value was “did not influence DSS-fed induced weight loss”.

**Q.** What about the “p-MLKL in P2Y14R△IEC mice (western blot)” value [3] of the same compound?
**A.** The value was “did not affect DSS-induced upregulation of p-MLKL”.

**Q.** And the Colon length ([3]; P2Y14R fl/fl vil-cre mice + DSS + PPTN, individual mice)?
**A.** Its Colon length is 7 cm and 5.4 cm and 6.3 cm and 5.6 cm and 5.8 cm and 6 cm.

**Q.** What about the “Improvement of DSS colitis in P2Y14R△IEC mice” value [3] of the same compound?
**A.** Its value is “barely improvement”.

**Q.** What about the “CON(ug/ml), serum FITC-dextran” value ([4]; DSS-treated mice, Figure 7e) of the same compound?
**A.** Its value is 12.4177 µg/mL and 12.0055 µg/mL and 12.4453 µg/mL and 11.0788 µg/mL and 9.474 µg/mL and 9.103 µg/mL.

**Q.** What about the CON [4, 16] of the same compound?
**A.** The CON was 6.506 µg/mL and 7.571 µg/mL and 6.5332 µg/mL and 6.645 µg/mL and 6.518 µg/mL and 7.625 µg/mL.

**Q.** And the Serum fluorescence intensity [4, 16]?
**A.** Its Serum fluorescence intensity is 5968551 and 6689623 and 5987216 and 6062672 and 5977001 and 6726135.
